# Laboratory results as given in PubChem BioAssay (NCI).
#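 The compound was tested at five concentrations on cells cultured in 96-well plates, with a 48-hour exposure period. Here, GI50 denotes the concentration required for 50% inhibition of growth. At the TGI there is no net growth.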
# Legend:
# Test in all cases: NCI anticancer screen, dose series, 48 h
# [1] = tested on: A498 renal
# [2] = tested on: ACHN renal
# [3] = tested on: BT-549 breast
# [4] = tested on: CAKI-1 renal
# [5] = tested on: COLO 205 colon
# [6] = tested on: DU-145 prostate
# [7] = tested on: EKVX NSCLC
# [8] = tested on: HCC-2998 colon
# [9] = tested on: HCT-15 colon
# [10] = tested on: HOP-62 NSCLC
# [11] = tested on: HOP-92 NSCLC
# [12] = tested on: HS 578T breast
# [13] = tested on: IGROV1 ovarian
# [14] = tested on: K-562 leukemia
# [15] = tested on: KM12 colon
# [16] = tested on: LOX IMVI melanoma
# [17] = tested on: MALME-3M melanoma
# [18] = tested on: MCF7 breast
# [19] = tested on: MDA-MB-231 breast
# [20] = tested on: MDA-MB-435
# [21] = tested on: MOLT-4 leukemia
# [22] = tested on: NCI-H226 lung
# [23] = tested on: NCI-H23 lung
# [24] = tested on: NCI-H460 lung
# [25] = tested on: NCI/ADR-RES ovarian
# [26] = tested on: OVCAR-3 ovarian
# [27] = tested on: OVCAR-4 ovarian
# [28] = tested on: OVCAR-5 ovarian
# [29] = tested on: PC-3 prostate
# [30] = tested on: RXF 393 renal
# [31] = tested on: SF-268 CNS
# [32] = tested on: SF-295 CNS
# [33] = tested on: SF-539 CNS
# [34] = tested on: SK-MEL-2 melanoma
# [35] = tested on: SK-MEL-28 melanoma
# [36] = tested on: SK-MEL-5 melanoma
# [37] = tested on: SK-OV-3 ovarian
# [38] = tested on: SN12C renal
# [39] = tested on: SNB-19 CNS
# [40] = tested on: SNB-75 CNS
# [41] = tested on: SW-620 colon
# [42] = tested on: T-47D breast
# [43] = tested on: TK-10 renal
# [44] = tested on: UACC-257 melanoma
# [45] = tested on: UACC-62 melanoma
# [46] = tested on: UO-31 renal
smiles,measurement,setting,value
CCN(CC)CCNC(=O)c1cn2ncnc(Oc3ccc(NC(=O)Nc4ccc(Cl)c(C(F)(F)F)c4)cc3)c2c1C,GI50,[1],1390 nM
same,TGI,[1],2740 nM
same,GI50,[2],1730 nM
same,TGI,[2],3100 nM
same,GI50,[3],1610 nM
same,TGI,[3],3090 nM
same,GI50,[4],1670 nM
same,TGI,[4],3070 nM
same,GI50,[5],1780 nM
same,TGI,[5],3560 nM
same,GI50,[6],1690 nM
same,TGI,[6],3100 nM
same,GI50,[7],1690 nM
same,TGI,[7],3120 nM
same,GI50,[8],2240 nM
same,TGI,[8],3920 nM
same,GI50,[9],1620 nM
same,TGI,[9],3100 nM
same,GI50,[10],1760 nM
same,TGI,[10],3560 nM
same,GI50,[11],1190 nM
same,TGI,[11],2690 nM
same,GI50,[12],1490 nM
same,TGI,[12],3920 nM
same,GI50,[13],1690 nM
same,TGI,[13],3240 nM
same,GI50,[14],383 nM
same,TGI,[14],1650 nM
same,GI50,[15],1690 nM
same,TGI,[15],3250 nM
same,GI50,[16],1360 nM
same,TGI,[16],2820 nM
same,GI50,[17],1290 nM
same,TGI,[17],2840 nM
same,GI50,[18],1220 nM
same,TGI,[18],2770 nM
same,GI50,[19],1870 nM
same,TGI,[19],3520 nM
same,GI50,[20],1630 nM
same,TGI,[20],3000 nM
same,GI50,[21],738 nM
same,TGI,[21],2400 nM
same,GI50,[22],1760 nM
same,TGI,[22],3890 nM
same,GI50,[23],1800 nM
same,TGI,[23],3490 nM
same,GI50,[24],1720 nM
same,TGI,[24],3320 nM
same,GI50,[25],1980 nM
same,TGI,[25],3820 nM
same,GI50,[26],1930 nM
same,TGI,[26],3510 nM
same,GI50,[27],1790 nM
same,TGI,[27],3420 nM
same,GI50,[28],1990 nM
same,TGI,[28],3480 nM
same,GI50,[29],1310 nM
same,TGI,[29],2800 nM
same,GI50,[30],1490 nM
same,TGI,[30],3020 nM
same,GI50,[31],1590 nM
same,TGI,[31],3140 nM
same,GI50,[32],1800 nM
same,TGI,[32],3330 nM
same,GI50,[33],1100 nM
same,TGI,[33],2320 nM
same,GI50,[34],1970 nM
same,TGI,[34],4150 nM
same,GI50,[35],1480 nM
same,TGI,[35],2800 nM
same,GI50,[36],1760 nM
same,TGI,[36],3220 nM
same,GI50,[37],1850 nM
same,TGI,[37],3460 nM
same,GI50,[38],1600 nM
same,TGI,[38],3140 nM
same,GI50,[39],1860 nM
same,TGI,[39],3270 nM
same,GI50,[40],64.5 nM
same,TGI,[40],1520 nM
same,GI50,[41],2230 nM
same,TGI,[41],3960 nM
same,GI50,[42],1800 nM
same,TGI,[42],4420 nM
same,GI50,[43],2110 nM
same,TGI,[43],3920 nM
same,GI50,[44],1630 nM
same,TGI,[44],3420 nM
same,GI50,[45],1810 nM
same,TGI,[45],3430 nM
same,GI50,[46],1720 nM
same,TGI,[46],3150 nM
